Reference: US8772299B2, “Phenyl piperazine compounds, pharmaceutical composition including the same and use thereof” (SK Biopharmaceuticals Co., Ltd., priority 2008, dated 2014)
Structures can show the parent of a compound that is named as a salt.

Assays:
[1] = target: T1, Serotonin 1A (5-HT1A) receptor (Rattus norvegicus, UniProt P19327); assay: Serotonin 1A (5-HT1A) receptor inhibition assay, [3H]8-OH-DPAT binding to rat cortex membranes; design: species or system Sprague-Dawley (SD) rats; conditions: 10 nM test compound; 0.92 nM [3H]8-OH-DPAT; rat cortex homogenate; 60 min at 25° C.
T1 construct: The cortex tissue were homogenized in 30 volumes of ice-cold 50 mM Tris-HCl buffer; from tissue; host or cells: Sprague-Dawley rat brain cortex membranes
T1 sequence (P19327 1-422): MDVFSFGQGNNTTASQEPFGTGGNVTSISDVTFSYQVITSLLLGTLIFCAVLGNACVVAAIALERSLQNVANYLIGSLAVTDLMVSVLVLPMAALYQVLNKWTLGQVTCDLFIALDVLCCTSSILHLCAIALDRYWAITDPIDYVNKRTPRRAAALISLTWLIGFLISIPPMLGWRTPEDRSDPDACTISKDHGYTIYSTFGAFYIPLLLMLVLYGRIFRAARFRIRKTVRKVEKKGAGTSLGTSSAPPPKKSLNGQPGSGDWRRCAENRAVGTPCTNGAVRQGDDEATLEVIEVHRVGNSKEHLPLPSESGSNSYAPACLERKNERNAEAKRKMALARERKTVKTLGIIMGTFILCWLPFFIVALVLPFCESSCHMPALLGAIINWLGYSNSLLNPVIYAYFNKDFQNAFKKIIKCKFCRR
Protocol: The method to test the ability of compounds to inhibit serotonin 1A(5-HT1A) receptors was using Hall. et al., J Neuro Chem., 1985, 44, p 1685-1696 with modification.
The Sprague-Dawley (SD) rats were killed by decapitation and their brains rapidly removed at 4° C. The cortex tissue were homogenized in 30 volumes of ice-cold 50 mM Tris-HCl buffer (pH7.4) using an ultra-turrax T8 and centrifuged at 48,000 g for 20 min. The supernatant was discarded and the pellet washed twice by resuspension in 20 volumes Tris-HCl and centrifugation, homogenized in 20 volumes Tris-HCl, and incubated at 37° C. for 10 min. Membranes were than collected by centrifugation and washed twice before final resuspension in 10 volumes of 50 mM Tris-HCl, pH7.4.
For binding assays, the incubation medium consisted of 162.5 ug of tissue homogenate, 0.92 nM of [3H]8-OH-DPAT and vehicle or 10 uM of 5-HT or 10 nM of test compounds per well. 5-HT and test compounds were dissolved in distilled water and incubation medium was 50 mM Tris(pH7.4 at room temperature). The assay plates (96 well) were incubated for 60 min at 25° C. The reaction was terminated by rapid filtration using a Tomtec harvester, through GF/C glassfibre filter with 5 times washes of Tris buffer. The radioactivity retained on the filters was counted by scintillation spectroscopy (MicroBeta TriLux, Wallac). The tests were triplicates. Percent inhibition was calculated as below equation.
Total binding is the value of vehicle treated group and specific binding is the values that deduct non-specific binding (i.e. the value of non-specific ligand, 5-HT).

mice = assay: Tail Suspension Test in Mice (TST); format: in vivo; conditions: reduction in immobility vs control group, po; for inhibition in vivo at 1 mg/kg: Mus musculus; for % reduction: 30 mg/kg
From the text: Tail Suspension Test in mice is the well-known animal model to determine antidepressant efficacy of compounds by checking escaping behavior and immobility time of mice. Mice treated with antidepressant drug show escaping behavior continuously comparing with control group.
The mice were mainly treated orally with the test compound dissolved in 30% PEG400 or with only 30% PEG400 as control. Tail of mouse is suspended to the rod of TST equipment and end of tail is fixed with sticky tape. Suspended mouse is incubated during 2 min for training and adaptation and after following 2 min, observe escaping behavior and check immobility time for 4 min. The potent ability of the compounds was determined as percent value of reduction in immobility comparing to control group as 100% baseline.

inhibition at 0.01 µM [1] [%]	SMILES	inhibition in vivo at 1 mg/kg (mice) [%]	% reduction (mice)
82.1	CN1CCN(Cc2ccc(OCCCCN3CCN(c4cccc(Cl)c4Cl)CC3)cc2)CC1 [Example 41]	14.1	–
69.5	COc1ccccc1N1CCN(CCCCOc2ccc(Cn3nnnc3C)cc2)CC1 [Example 18, 1-(2-methoxy-phenyl)-4-{4-[4-(5-methyl-tetrazol-1-ylmethyl)-phenoxy]-butyl}-piperazine]	14.7	–
17.4	Clc1cccc(N2CCN(CCCCOc3ccc(Cn4ccnn4)cc3)CC2)c1Cl [Example 44, 1-(2,3-dichloro-phenyl)-4-[4-(4-[1,2,3]triazol-1-ylmethyl-phenoxy)-butyl]-piperazine]	–	–
45.2	COc1ccccc1N1CCN(CCCCOc2cccc(Cn3ccnn3)c2)CC1 [Example 25, 1-(2-Methoxy-phenyl)-4-[4-(3-[1,2,3]triazol-1-ylmethyl-phenoxy)-butyl]-piperazine]	–	–
50.1	COc1ccccc1N1CCN(CCCCOc2cccc(Cn3cncn3)c2)CC1 [Example 6, 1-(2-methoxy-phenyl)-4-[4-(3-[1,2,4]triazol-1-ylmethyl-phenoxy)-butyl]-piperazine hydrochloride]	–	–
75.9	COc1ccccc1N1CCN(CCCCOc2ccc(Cn3ncnn3)cc2)CC1 [Example 4, 1-(2-methoxy-phenyl)-4-[4-(4-tetrazol-2-ylmethyl-phenoxy)-butyl]-piperazine]	–	–
71.8	COc1ccccc1N1CCN(CCCCOc2ccc(Cn3ccnc3C)cc2)CC1 [Example 10, 1-(2-Methoxy-phenyl)-4-{4-[4-(2-methyl-imidazol-1-ylmethyl)-phenoxy]-butyl}-piperazine]	–	–
62.5	COc1ccccc1N1CCN(CCCCOc2ccc(Cn3nnnc3-c3ccccc3)cc2)CC1 [Example 16, 1-(2-methoxy-phenyl)-4-{4-[4-(5-phenyl-tetrazol-1-ylmethyl)-phenoxy]-butyl}-piperazine]	–	–
17.2	Clc1ccccc1N1CCN(CCCCOc2ccc(Cn3cncn3)cc2)CC1 [Example 23, 1-(2-chloro-phenyl)-4-[4-(4-[1,2,4]triazol-1-ylmethyl-phenoxy)-butyl]-piperazine]	–	–
46	COc1ccccc1N1CCN(CCCCOc2ccc(CCn3nnnc3C)cc2)CC1 [Example 53, 1-(2-Methoxy-phenyl)-4-(4-{4-[2-(5-methyl-tetrazol-1-yl)-ethyl]-phenoxy}-butyl)-piperazine]	–	–
–	CNCCC(Oc1ccc(C(F)(F)F)cc1)c1ccccc1 (stereo not shown) [Fluxetine, reference compound]	–	49. at 30 mg/kg, po %
24.3	Clc1ccccc1N1CCN(CCCCOc2ccc(Cn3nccn3)cc2)CC1 [Example 56, 1-(2-chloro-phenyl)-4-[4-(4-[1,2,3]triazol-2-ylmethyl-phenoxy)-butyl]-piperazine]	–	–
23.5	COc1ccccc1N1CCN(CCCCOc2ccc(Cn3nnc(-c4ccccc4)n3)cc2)CC1 [Example 15, 1-(2-methoxy-phenyl)-4-{4-[4-(5-phenyl-tetrazol-2-ylmethyl)-phenoxy]-butyl}-piperazine]	–	–
36.2	Clc1ccccc1N1CCN(CCCCOc2ccc(Cn3ccnn3)cc2)CC1 [Example 42, 1-(2-chloro-phenyl)-4-[4-(4-[1,2,3]triazol-1-ylmethyl-phenoxy)-butyl]-piperazine]	–	–
77.8	COc1ccccc1N1CCN(CCCCOc2ccc(Cn3cnnn3)cc2)CC1 [Example 3, 1-(2-methoxy-phenyl)-4-[4-(4-tetrazol-1-ylmethyl-phenoxy)-butyl]-piperazine]	–	–
73.3	CN1CCN(Cc2ccc(OCCCCN3CCN(c4ccccc4Cl)CC3)cc2)CC1 [Example 35]	–	–
30.3	Clc1ccccc1N1CCN(CCCCOc2ccc(Cn3ncnn3)cc2)CC1 [Example 31, 1-(2-chloro-phenyl)-4-[4-(4-tetrazol-2-ylmethyl-phenoxy)-butyl]-piperazine]	–	–
29.4	Cc1nnn(Cc2ccc(OCCCCN3CCN(c4cccc(Cl)c4Cl)CC3)cc2)n1 [Example 38, 1-(2,3-Dichloro-phenyl)-4-{4-[4-(5-methyl-tetrazol-2-ylmethyl)-phenoxy]-butyl}-piperazine]	–	–
24.8	Cc1nnnn1Cc1ccc(OCCCCN2CCN(c3cccc(Cl)c3Cl)CC2)cc1 [Example 37, 1-(2,3-Dichloro-phenyl)-4-{4-[4-(5-methyl-tetrazol-1-ylmethyl)-phenoxy]-butyl}-piperazine]	–	–
38.3	COc1ccccc1N1CCN(CCCCOc2ccc(Cn3cnc(Cl)c3Cl)cc2)CC1 [Example 30, 1-{4-[4-(4,5-dichloro-imidazol-1-ylmethyl)-phenoxy]-butyl}-4-(2-methoxy-phenyl)-piperazine]	–	–
–	CN(C)CCC[C@@]1(c2ccc(F)cc2)OCc2cc(C#N)ccc21 [Estalopram, reference compound]	–	47, at 30 mg/kg, po %
40.9	COc1ccccc1N1CCN(CCCCOc2cccc(Cn3nnnc3C)c2)CC1 [Example 27, 1-(2-methoxy-phenyl)-4-{4-[3-(5-methyl-tetrazol-1-ylmethyl)-phenoxy]-butyl}-piperazine]	–	–
47	COc1ccccc1N1CCN(CCCCOc2cccc(Cn3nnc(C)n3)c2)CC1 [Example 26, 1-(2-Methoxy-phenyl)-4-{4-[3-(5-methyl-tetrazol-2-ylmethyl)-phenoxy]-butyl}-piperazine]	–	–
56.4	COc1ccccc1N1CCN(CCCCOc2ccc(Cn3nnc(C)n3)cc2)CC1 [Example 17, 1-(2-methoxy-phenyl)-4-{4-[4-(5-methyl-tetrazol-2-ylmethyl)-phenoxy]-butyl}-piperazine]	–	–

SMILES	inhibition at 0.01 µM [1] [%]	inhibition in vivo at 1 mg/kg (mice) [%]	% reduction (mice)
COc1ccccc1N1CCN(CCCCOc2cccc(CN3CCOCC3)c2)CC1 [Example 29, 4-(3-{4-[4-(2-methoxy-phenyl)-piperazin-1-yl]-butoxy}-benzyl)-morpholine]	45.8	–	–
COc1ccccc1N1CCN(CCCCOc2ccc(Cn3nnc4ccccc43)cc2)CC1 [Example 14, 1-(4-{4-[4-(2-Methoxy-phenyl)-piperazin-1-yl]-butoxy}-benzyl)-1H-benzotriazole]	51.1	–	–
COc1ccccc1N1CCN(CCCCOc2ccc(CNc3nccs3)cc2)CC1 [Example 22, (4-{4-[4-(2-methoxy-phenyl)-piperazin-1-yl]-butoxy}-benzyl)-thiazol-2-yl-amine]	53.4	–	–
COc1ccccc1N1CCN(CCCCOc2ccc(CNc3cc(C)on3)cc2)CC1 [Example 45, (4-{4-[4-(2-Methoxy-phenyl)-piperazin-1-yl]-butoxy}-benzyl)-(5-methyl-isoxazol-3-yl)-amine]	73.8	–	–
COc1ccccc1N1CCN(CCCCOc2ccc(Cn3cnc4ccccc43)cc2)CC1 [Example 9, 1-(4-{4-[4-(2-methoxy-phenyl)-piperazin-1-yl]-butoxy}-benzyl)-1H-benzoimidazole]	52.2	–	–
COc1ccccc1N1CCN(CCCCOc2ccc(CNc3cc(C)no3)cc2)CC1 [Example 46, (4-{4-[4-(2-methoxy-phenyl)-piperazin-1-yl]-butoxy}-benzyl)-(3-methyl-isoxazol-5-yl)-amine]	64.6	–	–
COc1ccccc1N1CCN(CCCCOc2ccc(CNc3nncs3)cc2)CC1 [Example 43, (4-{4-[4-(2-Methoxy-phenyl)-piperazin-1-yl]-butoxy}-benzyl)-[1,3,4]thiadiazol-2-yl-amine]	95.6	–	–
COc1ccccc1N1CCN(CCCCOc2ccc(Cn3ncc4ccccc43)cc2)CC1 [Example 13, 1-(4-{4-[4-(2-Methoxy-phenyl)-piperazin-1-yl]-butoxy}-benzyl)-1H-indazole]	50.4	–	–
